Measurements taken from paper PMC11243693, “Synthesis and Biological Evaluation of New Compounds with Nitroimidazole Moiety” (Molecules, 2024).
Values after ≈ are worked out from the molar mass of the structure shown.

Assays:
Type in all cases: cell-based
[1] = test system: Bacillus subtilis ATCC 6633; assay: Broth microdilution, B. subtilis ATCC 6633; conditions: Bs 6633; for MBC/MIC Ratio: <4 bactericidal, ≥4 bacteriostatic
Procedure: (§1) The antibacterial activity of the obtained thiosemicarbazides and hydrazide–hydrazones was determined by evaluating their ability to inhibit microbial growth in vitro using the broth microdilution method, according to the guidelines of the European Committee on Antimicrobial Susceptibility Testing (EUCAST). The method involved the preparation of microbial suspensions with a standardized density of 0.5 on the McFarland scale (equivalent to 1.5 × 10^8 colony-forming units/mL for bacteria and […] for fungi). A solution of the test substances was then prepared (initial concentration 1000 µg/mL, diluted in sterile Mueller-Hinton broth for bacteria or Mueller-Hinton with 2% glucose for fungi). The test was carried out in 96-well polystyrene flat-bottom plates (Medlab, Poland) with 100 µL of appropriate sterile microbiological medium in each well. The first wells were filled with 200 µL of the test substance, diluted to the initial concentration, and then double-decreasing dilutions were made under aseptic conditions using an automatic pipette. The final step was the addition of a 10-fold diluted microbial suspension of 2 µL. At the same time, the following controls were included: (a) medium control (100 µL of sterile medium without microorganisms added), (b) microbial viability control, (c) test substance control (dilutions without added micro-organisms), (d) positive control of the drug used in the clinic. The plates thus prepared were incubated for 18 ± 2 h at 35 ± 2 °C under conditions optimal for the growth of the test microorganisms. After incubation, the spectrophotometric absorbance at 570 nm in each well of the plate was read. The aim of this part of the study was to determine two parameters: the minimum inhibitory concentration (MIC) and the minimum bactericidal or fungicidal concentration (MBC/MFC) of the test compound. […] The MBC value was determined by adding 5 µL of the contents of each well of the plate to solid sterile MHA or MHA + 2%glc medium for bacteria and fungi, respectively. The area on the plate where 99.9% inhibition of microbial growth was observed indicated the lethal concentration. In addition, the quotient MBC(MFC)/MIC could be determined to assess the nature of the activity of the test substance. If MBC(MFC)/MIC was <4, the test substance was bactericidal/fungicidal, whereas if MBC(MFC)/MIC was ≥4, it was bacteriostatic/fungistatic. Amoxicillin (Glentham Life Sciences, USA) and nystatin (Glentham Life Sciences, USA) were used as the controls for this assay.
(§2) The test was performed either on bacteria, comprising: Gram-positive (Staphylococcus aureus ATCC 25923, Staphylococcus aureus ATCC 6538, Staphylococcus aureus ATCC 43300 methicillin-resistant MRSA, Staphylococcus epidermidis ATCC 12228, Micrococcus luteus ATCC 10240, Bacillus subtilis ATCC 6633, Bacillus cereus ATCC 10876) and Gram-negative (Escherichia coli ATCC 25922, Pseudomonas aeruginosa ATCC 27853, Proteus mirabilis ATCC 12453, Klebsiella pneumoniae ATCC 13883) or yeast (Candida parapsilosis ATCC 22019, Candida glabrata ATCC 90030, Candida krusei ATCC 14243, Candida glabrata ATCC 15126, Candida tropicalis ATCC 1369, Candida auris CDC B11903, Candida lusitaniae ATCC 3449) reference strains from the American Type Culture Collection (ATCC) or the Centers for Disease Control and Prevention (CDC).

[2] = test system: Candida glabrata ATCC 15126; assay: Broth microdilution, C. glabrata ATCC 15126; conditions: Cg 15126
Procedure: as §1, §2

[3] = test system: Staphylococcus aureus ATCC 6538; assay: Broth microdilution, S. aureus ATCC 6538; conditions: Sa 6538
Procedure: as §1, §2

[4] = test system: Candida lusitaniae ATCC 3449; assay: Broth microdilution, C. lusitaniae ATCC 3449; conditions: Cl 3449
Procedure: as §1, §2

[5] = test system: Bacillus cereus ATCC 10876; assay: Broth microdilution, B. cereus ATCC 10876; conditions: Bc 10876; for MBC/MIC Ratio: <4 bactericidal, ≥4 bacteriostatic
Procedure: as §1, §2

[6] = test system: Staphylococcus aureus ATCC 25923; assay: Broth microdilution, S. aureus ATCC 25923; conditions: Sa 25923
Procedure: as §1, §2

[7] = test system: Candida tropicalis ATCC 1369; assay: Broth microdilution, C. tropicalis ATCC 1369; conditions: Ct 1369
Procedure: as §1, §2

[8] = test system: Candida parapsilosis ATCC 22019; assay: Broth microdilution, C. parapsilosis ATCC 22019; conditions: Cp 22019
Procedure: as §1, §2

[9] = test system: Candida glabrata ATCC 90030; assay: Broth microdilution, C. glabrata ATCC 90030; conditions: Cg 90030
Procedure: as §1, §2

[10] = test system: Candida krusei ATCC 14243; assay: Broth microdilution, C. krusei ATCC 14243; conditions: Ck 14243
Procedure: as §1, §2

[11] = test system: Staphylococcus aureus ATCC 43300 methicillin-resistant MRSA; assay: Broth microdilution, S. aureus ATCC 43300 MRSA; conditions: Sa 43300 MRSA
Procedure: as §1, §2

Candida auris CDC B11903 = assay: Broth microdilution, C. auris CDC B11903; conditions: Ca B11903
Procedure: as §1, §2

[12] = test system: Staphylococcus epidermidis ATCC 12228; assay: Broth microdilution, S. epidermidis ATCC 12228; conditions: Se 12228; for MBC/MIC Ratio: <4 bactericidal, ≥4 bacteriostatic
Procedure: as §1, §2

[13] = test system: Micrococcus luteus ATCC 10240; assay: Broth microdilution, M. luteus ATCC 10240; conditions: Ml 10240; for MBC/MIC Ratio: <4 bactericidal, ≥4 bacteriostatic
Procedure: as §1, §2

## Cc1ccccc1NC(=S)NNC(=O)c1nc([N+](=O)[O-])cn1C [Compound 15]
[1]
  MBC: 1000 µg/mL (≈ 2990 µM)
  MIC: 1000 µg/mL (≈ 2990 µM)
  MBC/MIC Ratio: 1
[2]
  MIC: >1000 µg/mL
[3]
  MBC: >1000 µg/mL
  MIC: 250 µg/mL (≈ 748 µM)
[4]
  MIC: >1000 µg/mL
[5]
  MBC: 500 µg/mL (≈ 1500 µM)
  MIC: 500 µg/mL (≈ 1500 µM)
  MBC/MIC Ratio: 1
[6]
  MBC: >1000 µg/mL
  MIC: 500 µg/mL (≈ 1500 µM)
[7]
  MFC: >1000 µg/mL
  MIC: 500 µg/mL (≈ 1500 µM)
[8]
  MIC: >1000 µg/mL
[9]
  MIC: >1000 µg/mL
[10]
  MIC: >1000 µg/mL
[11]
  MBC: >1000 µg/mL
  MIC: 250 µg/mL (≈ 748 µM)
Candida auris CDC B11903
  MIC: >1000 µg/mL
[12]
  MBC: 500 µg/mL (≈ 1500 µM)
  MIC: 500 µg/mL (≈ 1500 µM)
  MBC/MIC Ratio: 1
[13]
  MBC: 500 µg/mL (≈ 1500 µM)
  MIC: 500 µg/mL (≈ 1500 µM)
  MBC/MIC Ratio: 1

## Cn1cc([N+](=O)[O-])nc1C(=O)NNC(=S)Nc1ccc(Cl)cc1 [Compound 5]
[1]
  MBC: 62.5 µg/mL (≈ 176 µM)
  MIC: 62.5 µg/mL (≈ 176 µM)
  MBC/MIC Ratio: 1
[2]
  MIC: >1000 µg/mL
[3]
  MBC: >1000 µg/mL
  MIC: 125 µg/mL (≈ 352 µM)
[4]
  MIC: >1000 µg/mL
[5]
  MBC: 250 µg/mL (≈ 705 µM)
  MIC: 250 µg/mL (≈ 705 µM)
  MBC/MIC Ratio: 1
[6]
  MBC: >1000 µg/mL
  MIC: 62.5 µg/mL (≈ 176 µM)
[7]
  MFC: >1000 µg/mL
  MIC: 500 µg/mL (≈ 1410 µM)
[8]
  MFC: >1000 µg/mL
  MIC: 62.5 µg/mL (≈ 176 µM)
[9]
  MIC: >1000 µg/mL
[10]
  MIC: >1000 µg/mL
[11]
  MBC: >1000 µg/mL
  MIC: 125 µg/mL (≈ 352 µM)
Candida auris CDC B11903
  MIC: >1000 µg/mL
[12]
  MBC: 125 µg/mL (≈ 352 µM)
  MIC: 125 µg/mL (≈ 352 µM)
  MBC/MIC Ratio: 1
[13]
  MBC: 125 µg/mL (≈ 352 µM)
  MIC: 125 µg/mL (≈ 352 µM)
  MBC/MIC Ratio: 1

## Cn1cc([N+](=O)[O-])nc1C(=O)NNC(=S)Nc1cccc(F)c1 [Compound 7]
[1]
  MBC: 250 µg/mL (≈ 739 µM)
  MIC: 125 µg/mL (≈ 369 µM)
  MBC/MIC Ratio: 2
[2]
  MIC: >1000 µg/mL
[3]
  MBC: >1000 µg/mL
  MIC: 500 µg/mL (≈ 1480 µM)
[4]
  MIC: >1000 µg/mL
[5]
  MBC: 500 µg/mL (≈ 1480 µM)
  MIC: 500 µg/mL (≈ 1480 µM)
  MBC/MIC Ratio: 1
[6]
  MBC: >1000 µg/mL
  MIC: 250 µg/mL (≈ 739 µM)
[7]
  MFC: >1000 µg/mL
  MIC: 250 µg/mL (≈ 739 µM)
[8]
  MIC: >1000 µg/mL
[9]
  MIC: >1000 µg/mL
[10]
  MIC: >1000 µg/mL
[11]
  MBC: >1000 µg/mL
  MIC: 500 µg/mL (≈ 1480 µM)
Candida auris CDC B11903
  MIC: >1000 µg/mL
[12]
  MBC: >1000 µg/mL
  MIC: 250 µg/mL (≈ 739 µM)
[13]
  MBC: 250 µg/mL (≈ 739 µM)
  MIC: 250 µg/mL (≈ 739 µM)
  MBC/MIC Ratio: 1

## Cn1cc([N+](=O)[O-])nc1C(=O)NNC(=S)Nc1ccccc1 [Compound 2]
[1]
  MBC: >1000 µg/mL
  MIC: 1000 µg/mL (≈ 3120 µM)
[2]
  MIC: >1000 µg/mL
[3]
  MBC: >1000 µg/mL
  MIC: 1000 µg/mL (≈ 3120 µM)
[4]
  MIC: >1000 µg/mL
[5]
  MIC: >1000 µg/mL
[6]
  MBC: >1000 µg/mL
  MIC: 500 µg/mL (≈ 1560 µM)
[7]
  MFC: >1000 µg/mL
  MIC: 500 µg/mL (≈ 1560 µM)
[8]
  MFC: >1000 µg/mL
  MIC: 500 µg/mL (≈ 1560 µM)
[9]
  MIC: >1000 µg/mL
[10]
  MIC: >1000 µg/mL
[11]
  MIC: >1000 µg/mL
Candida auris CDC B11903
  MIC: >1000 µg/mL
[12]
  MBC: 1000 µg/mL (≈ 3120 µM)
  MIC: 1000 µg/mL (≈ 3120 µM)
  MBC/MIC Ratio: 1
[13]
  MBC: 1000 µg/mL (≈ 3120 µM)
  MIC: 1000 µg/mL (≈ 3120 µM)
  MBC/MIC Ratio: 1

## Cn1cc([N+](=O)[O-])nc1C(=O)NNC(=S)Nc1ccccc1F [Compound 6]
[1]
  MBC: 500 µg/mL (≈ 1480 µM)
  MIC: 250 µg/mL (≈ 739 µM)
  MBC/MIC Ratio: 2
[2]
  MIC: >1000 µg/mL
[3]
  MBC: >1000 µg/mL
  MIC: 1000 µg/mL (≈ 2960 µM)
[4]
  MIC: >1000 µg/mL
[5]
  MBC: 1000 µg/mL (≈ 2960 µM)
  MIC: 500 µg/mL (≈ 1480 µM)
  MBC/MIC Ratio: 2
[6]
  MBC: >1000 µg/mL
  MIC: 250 µg/mL (≈ 739 µM)
[7]
  MFC: >1000 µg/mL
  MIC: 250 µg/mL (≈ 739 µM)
[8]
  MFC: >1000 µg/mL
  MIC: 1000 µg/mL (≈ 2960 µM)
[9]
  MIC: >1000 µg/mL
[10]
  MIC: >1000 µg/mL
[11]
  MBC: >1000 µg/mL
  MIC: 1000 µg/mL (≈ 2960 µM)
Candida auris CDC B11903
  MIC: >1000 µg/mL
[12]
  MBC: 500 µg/mL (≈ 1480 µM)
  MIC: 500 µg/mL (≈ 1480 µM)
  MBC/MIC Ratio: 1
[13]
  MBC: 250 µg/mL (≈ 739 µM)
  MIC: 250 µg/mL (≈ 739 µM)
  MBC/MIC Ratio: 1
